What was measured:
[1] = tested on: CD8+ T cells; assay: In vitro immunogenicity of HLA-A*2402 restricted TUMAPs: priming of CD8+ T cells with pMHC/anti-CD28 coated beads (aAPC), multimer staining; assay type: cell-based, human; settings: HLA-A*2402 peptides, healthy donors, three stimulation cycles; for Wells positive/evaluable [%]: at least 48 wells evaluable; for Donors positive/evaluable [%]: at least four donors evaluable
Source text: (§1) In order to perform in vitro stimulations by artificial antigen presenting cells (aAPC) loaded with peptide-MHC complex (pMHC) and anti-CD28 antibody, we first isolated CD8 T cells from fresh HLA-A*24 leukapheresis products or from HLA-A*2 buffy coats of healthy donors obtained from the Blood Bank Tuebingen.
(§2) CD8 T cells were either directly enriched or PBMCs (peripheral blood mononuclear cells) were isolated first by using standard gradient separation medium (PAA, Colbe, Germany). Isolated CD8 lymphocytes or PBMCs were incubated until use in T-cell medium (TCM) consisting of RPMI-Glutamax (Invitrogen, Karlsruhe, Germany) supplemented with 10% heat inactivated human AB serum (PAN-Biotech, Aidenbach, Germany), 100 U/ml Penicillin/100 μg/ml Streptomycin (Cambrex, Cologne, Germany), 1 mM sodium pyruvate (CC Pro, Oberdorla, Germany), 20 μg/ml Gentamycin (Cambrex). […] Isolation of CD8+ lymphocytes was performed by positive selection using CD8 MicroBeads (Miltenyi Biotec, Bergisch-Gladbach, Germany).
(§3) 800.000 beads/200 μl were coated in 96-well plates in the presence of 600 ng biotin-anti-CD28 plus 200 ng relevant biotin-pMHC (high density beads). […] Half of the medium was then exchanged by fresh TCM supplemented with 80 U/ml IL-2 and incubation was continued for 3-4 days at 37° C. This stimulation cycle was performed for a total of three times.
(§4) In vitro priming of specific multimer+ CD8+ lymphocytes was detected by appropriate gating and by comparing to negative control stimulations.

[2] = tested on: CD8+ T cells; assay: In vitro immunogenicity of HLA-A*0201 restricted TUMAPs: priming of CD8+ T cells with pMHC/anti-CD28 coated beads (aAPC), multimer staining; assay type: cell-based, human; settings: HLA-A*0201 peptides, healthy donors, three stimulation cycles; for Wells positive/evaluable [%]: at least 48 wells evaluable; for Donors positive/evaluable [%]: at least four donors evaluable
Source text: as §1, §2, §3, §4

[3] = described in other applications by immatics; vaccines IMA901, IMA910; cited from earlier work

Substance	Wells positive/evaluable [%] [1]	Donors positive/evaluable [%] [1]	Wells positive/evaluable [%] [2]	Donors positive/evaluable [%] [2]	in vivo reactions [3]
VYISSLALL (listed as Homo sapiens) [PSMD14-001]	1%	17%	–	–	–
KIQEILTQV (listed as Homo sapiens) [IGF2BP3-001]	–	–	21%	50%	–
YYYVGFAYL (listed as Homo sapiens) [EIF'3L-001]	29%	100%	–	–	–
IYAPKLQEF (listed as Homo sapiens) [CCNE2-001]	0%	0%	–	–	–
SYNVTSVLF (listed as Homo sapiens) [LCN2-001]	1%	17%	–	–	–
SYNPLWLRI (listed as Homo sapiens) [ASPM-002]	32%	67%	–	–	–
AYPTVKFYF (listed as Homo sapiens) [DNAJC10-002]	3%	33%	–	–	–
VYTTMAEHF (listed as Homo sapiens) [TSPAN1-002]	1%	17%	–	–	–
AYLVYTDRL (listed as Homo sapiens) [PPAP2C-001]	29%	83%	–	–	–
KYNDTFWKEF (listed as Homo sapiens) [HSP90B1-001]	7%	50%	–	–	–
NYLLYVSNF (listed as Homo sapiens) [MST1R-001]	13%	50%	–	–	–
QYASRFVQL (listed as Homo sapiens) [PLK4-001]	5%	60%	–	–	–
MYMTVSIIDRF (listed as Homo sapiens) [CCNB1-003]	3%	33%	–	–	–
HYKPTPLYF (listed as Homo sapiens) [SMC4-001]	10%	73%	–	–	–
SYQKVIELF (listed as Homo sapiens) [PBK-001]	0%	0%	–	–	–
VWSDVTPLTF (listed as Homo sapiens) [MMP11-001]	11%	33%	–	–	–
FYISPVNKL (listed as Homo sapiens) [AVL9-001]	31%	100%	–	–	–
VYPNWAIGL (listed as Homo sapiens) [SLC6A6-001]	1%	17%	–	–	–
SYLQAANAL (listed as Homo sapiens) [COL6A3-001]	0%	0%	–	–	–

Substance	Wells positive/evaluable [%] [1]	Donors positive/evaluable [%] [1]	Wells positive/evaluable [%] [2]	Donors positive/evaluable [%] [2]	in vivo reactions [3]
SYATLLHVL (listed as Homo sapiens) [GPR39-001]	6%	50%	–	–	–
VYKVVGNLL (listed as Homo sapiens) [IQGAP3-001]	24%	100%	–	–	–
DYAYLREHF (listed as Homo sapiens) [ZNF598-001]	17%	83%	–	–	–
LYQILQGIVF (listed as Homo sapiens) [CDC2-001]	28%	83%	–	–	–
YYKNIGLGF (listed as Homo sapiens) [RPS11-001]	3%	17%	–	–	–
QYIDKLNEL (listed as Homo sapiens) [CCDC88A-001]	0%	0%	–	–	–
RFLSGIINF (listed as Homo sapiens) [NUF2-002]	6%	50%	–	–	–
VYFSKSEQL (listed as Homo sapiens) [EPHA2-005]	0%	0%	–	–	–
NYLPFIMEL (listed as Homo sapiens) [UCHL5-001]	12%	75%	–	–	–
LYLENIDEF (listed as Homo sapiens) [POLD3-001]	7%	67%	–	–	–
RYLEGTSCI (listed as Homo sapiens) [EPPK1-001]	1%	17%	–	–	–
IYLEVIHNL (listed as Homo sapiens) [DNAJC10-001]	15%	50%	–	–	–
TYGNLLDYL (listed as Homo sapiens) [ABL1-001]	18%	83%	–	–	–
VYIEKNDKL (listed as Homo sapiens) [ERBB3-001]	–	83%	–	–	–
VYNPTPNSL (listed as Homo sapiens) [COL12A1-001]	0%	0%	–	–	–
SYIIDPLNL (listed as Homo sapiens) [PROM1-001]	26%	83%	–	–	–
YVDPVIT SI (YVDPVITSI; listed as Homo sapiens) [MET-001]	–	–	42%	67%	extremely good in vivo reactions
YYNAAGFNKL (listed as Homo sapiens) [UQCRB-001]	24%	83%	–	–	–
NYEETFPHI (listed as Homo sapiens) [MUC6-001]	22%	83%	–	–	–

Substance	Wells positive/evaluable [%] [1]	Donors positive/evaluable [%] [1]	Wells positive/evaluable [%] [2]	Donors positive/evaluable [%] [2]	in vivo reactions [3]
KIFDEILVNA (listed as Homo sapiens) [TOP-001]	–	–	10%	40%	–
IFSKIVSLF (listed as Homo sapiens) [EIF2S3-001]	1%	17%	–	–	–
DYTIGFGKF (listed as Homo sapiens) [ITGB4-001]	20%	67%	–	–	–
VYTTSYQQI (listed as Homo sapiens) [NFYB-001]	7%	50%	–	–	–
KYLTVKDYL (listed as Homo sapiens) [ATAD2-002]	1%	17%	–	–	–
AYAIIKEEL (listed as Homo sapiens) [ATAD2-001]	3%	33%	–	–	–
SYLELVKSL (listed as Homo sapiens) [SDHC-001]	3%	33%	–	–	–
LYPEVFEKF (listed as Homo sapiens) [ATAD2-003]	0%	0%	–	–	–
VFIFKGNQF (listed as Homo sapiens) [MMP3-001]	1%	11%	–	–	–
FYQPKIQQF (listed as Homo sapiens) [FANCI-001]	1%	17%	–	–	–
IYNGKLFDLL (listed as Homo sapiens) [KIF2C-001]	2%	17%	–	–	–
RYLPQCSYF (listed as Homo sapiens) [CCND2-001]	10%	17%	–	–	–
VYLLNSTTL (listed as Homo sapiens) [CLCN3-001]	6%	33%	–	–	–
SYIDVLPEF (listed as Homo sapiens) [MET-006]	21%	67%	–	–	–
RYLWATVTI (listed as Homo sapiens) [ASPM-001]	3%	17%	–	–	–
VYGIRLEHF (listed as Homo sapiens) [NUF2-001]	50%	100%	–	–	–
VFDTAIAHLF (listed as Homo sapiens) [SIAH2-001]	8%	50%	–	–	–
RYLPKGFLNQF (listed as Homo sapiens) [PTK2-001]	4%	17%	–	–	–
IYPDASLLI (listed as Homo sapiens) [CEA-010]	3%	40%	–	–	–

From US11273200B2, “Immunotherapy against several tumors including gastrointestinal and gastric cancer” (Immatics Biotechnologies GmbH, priority 2010, dated 2022)
